What was measured:
[1] = Antioxidant activity assessed as DPPH radical scavenging activity at 100 uM relative to control; assay type: functional
[2] = target: T1, AKR1A1 (aldo-keto reductase family 1 member A1) (Rattus norvegicus, UniProt P51635); assay: Inhibition of AKR1A1 in rat kidney at 10 uM relative to control
T1 sequence (P51635 whole entry): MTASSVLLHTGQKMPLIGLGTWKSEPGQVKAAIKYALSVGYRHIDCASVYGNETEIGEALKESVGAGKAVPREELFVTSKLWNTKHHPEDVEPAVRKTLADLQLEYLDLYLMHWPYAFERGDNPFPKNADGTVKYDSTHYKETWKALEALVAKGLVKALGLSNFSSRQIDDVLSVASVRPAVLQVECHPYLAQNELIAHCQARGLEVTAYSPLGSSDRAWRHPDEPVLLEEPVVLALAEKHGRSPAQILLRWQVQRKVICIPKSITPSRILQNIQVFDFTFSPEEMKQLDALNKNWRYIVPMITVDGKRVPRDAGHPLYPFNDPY

[3] = Antioxidant activity assessed as DPPH radical scavenging activity at 50 uM relative to control; assay type: functional
[4] = Antioxidant activity assessed as DPPH radical scavenging activity at 10 uM relative to control; assay type: functional
[5] = target: Aldo-keto reductase family 1 member B1 (Rattus norvegicus, UniProt P07943); assay: Inhibition of AKR1B1 in rat lenses
[6] = n-octanol/aqueous buffer distribution coefficient, logD of compound at pH 7.4 by shake flask assay based HPLC-MS analysis; assay type: physicochemical

inhibition at 10 µM [2]	IC50 [5]	logD [6]	Structure (SMILES)	Activity [1]	Activity [3]	Activity [4]
34.6%	107 nM	–	O=C(NO)c1cn(Cc2ccc(O)cc2)c2ccccc2c1=O	74.9%	51.1%	32.3%
–	–	–	Cc1c(C)c2c(c(C)c1O)CCC(C)(C(=O)O)O2 (stereo not drawn)	94.2%	84.1%	77.2%
25.4%	287 nM	–	O=C(NO)c1cn(Cc2ccc(O)c(O)c2)c2ccccc2c1=O	88.1%	65.1%	51.1%
20.1%	1530 nM	–	O=C(O)c1cn(Cc2ccc(Br)cc2)c2ccccc2c1=O	25.4%	–	–
–	12000 nM	–	COc1ccc(Cn2cc(C(=O)O)c(=O)c3ccccc32)cc1	30.5%	–	–
26.5%	626 nM	–	O=C(NO)c1cn(Cc2ccc(Cl)cc2)c2ccccc2c1=O	31.7%	–	–
10.5%	13600 nM	–	COc1ccc(Cn2cc(C(=O)NO)c(=O)c3ccccc32)cc1OC	39.1%	–	–
36.6%	57 nM	0.57	O=C(O)c1cn(Cc2cc(O)cc(O)c2)c2ccccc2c1=O	92.4%	71.1%	51.7%
17.6%	2490 nM	–	O=C(NO)c1cn(Cc2ccc(Br)cc2)c2ccccc2c1=O	27.6%	–	–
30.1%	9870 nM	–	COc1cc(Cn2cc(C(=O)O)c(=O)c3ccccc32)cc(OC)c1	47.6%	–	–
17.2%	15600 nM	–	COc1cc(Cn2cc(C(=O)NO)c(=O)c3ccccc32)cc(OC)c1	41.3%	–	–
24.7%	112 nM	–	CS(=O)(=O)NC(=O)c1cn(Cc2cc(O)cc(O)c2)c2ccccc2c1=O	79.4%	64.7%	33.6%
18.3%	321 nM	–	O=C(O)c1cn(Cc2ccc(Cl)cc2)c2ccccc2c1=O	28.7%	–	–
37.5%	98 nM	–	O=C(O)c1cn(Cc2ccc(O)cc2)c2ccccc2c1=O	62.7%	30.4%	14.6%
24.1%	237 nM	–	O=C(NO)c1cn(Cc2ccc(F)cc2)c2ccccc2c1=O	32.1%	–	–
38.6%	251 nM	–	O=C(O)c1cn(Cc2ccc(O)c(O)c2)c2ccccc2c1=O	87.1%	61.9%	44.9%
7.9%	15000 nM	0.53	CS(=O)(=O)NC(=O)c1cn(Cc2ccccc2)c2ccccc2c1=O	28.7%	–	–
7.6%	12500 nM	–	COc1ccc(Cn2cc(C(=O)NO)c(=O)c3ccccc32)cc1	34.1%	–	–
43.1%	–	–	CC(/C=C1\SC(=S)N(CC(=O)O)C1=O)=C\c1ccccc1	–	–	–
21.7%	689 nM	0.73	CONC(=O)c1cn(Cc2cc(O)cc(O)c2)c2ccccc2c1=O	88.7%	55.8%	42.7%
7.1%	12600 nM	1.53	O=C(NO)c1cn(Cc2ccccc2)c2ccccc2c1=O	27.1%	–	–
27.4%	65 nM	1.32	O=C(NO)c1cn(Cc2cc(O)cc(O)c2)c2ccccc2c1=O	91%	72.4%	57.8%
24.8%	10600 nM	–	COc1ccc(Cn2cc(C(=O)O)c(=O)c3ccccc32)cc1OC	32.2%	–	–
30.2%	154 nM	–	O=C(O)c1cn(Cc2ccc(F)cc2)c2ccccc2c1=O	21.4%	–	–
5.8%	11000 nM	0.82	O=C(O)c1cn(Cc2ccccc2)c2ccccc2c1=O	20.3%	–	–
5.1%	12800 nM	1.19	CONC(=O)c1cn(Cc2ccccc2)c2ccccc2c1=O	25.2%	–	–

From ChEMBL document CHEMBL4619717, “Novel quinolin-4(1H)-one derivatives as multi-effective aldose reductase inhibitors for treatment of diabetic complications: Synthesis, biological evaluation, and molecular modeling studies” (Bioorg Med Chem Lett, 2020)
